The source of these data is ChEMBL document CHEMBL1143974, “Synthesis and cyclooxygenase inhibitory activities of linear 1-(methanesulfonylphenyl or benzenesulfonamido)-2-(pyridyl)acetylene regioisomers” (Bioorg Med Chem, 2008).

pIC50: −log10 of the molar value. Some results are limits rather than exact numbers.

Test [1] deals with T1, Prostaglandin G/H synthase 1 (Ovis aries, UniProt P05979).
T1 sequence (P05979 whole entry): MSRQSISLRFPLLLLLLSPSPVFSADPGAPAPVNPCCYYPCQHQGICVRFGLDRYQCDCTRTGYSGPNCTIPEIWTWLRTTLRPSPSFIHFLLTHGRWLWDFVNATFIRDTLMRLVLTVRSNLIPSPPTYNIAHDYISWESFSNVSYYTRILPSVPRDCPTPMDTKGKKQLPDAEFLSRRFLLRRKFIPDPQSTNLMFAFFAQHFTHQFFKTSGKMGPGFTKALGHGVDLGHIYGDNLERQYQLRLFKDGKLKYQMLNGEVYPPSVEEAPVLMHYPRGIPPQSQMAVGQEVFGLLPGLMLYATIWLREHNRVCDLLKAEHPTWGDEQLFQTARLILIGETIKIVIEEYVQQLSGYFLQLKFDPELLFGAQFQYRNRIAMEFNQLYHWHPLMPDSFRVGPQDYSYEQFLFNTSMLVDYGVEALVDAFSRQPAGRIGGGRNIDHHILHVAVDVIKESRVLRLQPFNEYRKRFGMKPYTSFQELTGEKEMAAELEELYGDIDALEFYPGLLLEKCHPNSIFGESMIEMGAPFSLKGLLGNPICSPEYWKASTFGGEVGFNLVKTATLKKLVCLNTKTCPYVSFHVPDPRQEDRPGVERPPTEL
The test is described as follows: Inhibition of ovine COX1 by enzyme immuno assay.

The test system of a further test is Rattus norvegicus. The test is described as follows: Antiinflammatory activity against carrageenan-induced foot paw edema in orally dosed rat after 3 hrs. The class given is functional. The following applies: po, read-out: ID50 (the source's name).
The next test is filed under the species Ovis aries. The test is described as follows: Selectivity index, ratio of IC50 for ovine COX1 to IC50 for ovine COX2.

Usually pIC50 stands for the IC50 on a negative log10 scale, so that one unit is a factor of ten. Higher therefore signals a small IC50. `Cc1cccnc1C#Cc1ccc(S(N)(=O)=O)cc1`: the pIC50 in test [1] is 5.89. For the same compound, the ED50 in the test with Rattus norvegicus is 76.6 mg/kg.

The compound `CS(=O)(=O)c1ccccc1C#Cc1ccccn1` gave a pIC50 in test [1] of 6.55.

With `NS(=O)(=O)c1ccc(C#Cc2ccccn2)cc1`, in test [1], the pIC50 was 5.03.

`CS(=O)(=O)c1ccc(C#Cc2ccccn2)cc1` had a pIC50 in test [1] of 4.50.

`NS(=O)(=O)c1ccc(C#Cc2ccncc2)cc1` had a pIC50 in test [1] of 5.41. This pIC50 is 0.91 log units higher than that of the compound before.

The compound `Cc1cccnc1C#Cc1ccccc1S(C)(=O)=O` showed a pIC50 in test [1] of 5.70. Compared with the last compound, the pIC50 is 0.29 log units higher.

Consider `CS(=O)(=O)c1cccc(C#Cc2cccnc2)c1`, for which, in the test listed under Ovis aries, the Ratio IC50 is over 3.1. Further, in test [1], the pIC50 is under 4.00.

As for `CS(=O)(=O)c1cccc(C#Cc2ccccn2)c1`, the pIC50 in test [1] is 4.50. Further, the ED50 in the test with Rattus norvegicus came out at 76.4 mg/kg.

`Cc1cccnc1C#Cc1ccc(S(C)(=O)=O)cc1` gave a pIC50 in test [1] of under 4.00.

As for `CS(=O)(=O)c1cccc(C#Cc2ccncc2)c1`, the Ratio IC50 in the test filed under Ovis aries was over 312. In test [1], this compound gave a pIC50 of under 4.00.

The compound `CS(=O)(=O)c1ccc(C#Cc2cccnc2)cc1` gave a pIC50 in test [1] of 5.49. Further, the ED50 with Rattus norvegicus is 59.9 mg/kg.

As to `CS(=O)(=O)c1ccccc1C#Cc1ccncc1`, in test [1], the pIC50 was 6.59.

Take `CC(=O)Oc1ccccc1C(=O)O` [ASPIRIN]: the ED50 in the test with Rattus norvegicus worked out at 129 mg/kg.
